From ChEMBL document CHEMBL4673282, “Identification of a New Heterocyclic Scaffold for Inhibitors of the Polo-Box Domain of Polo-like Kinase 1” (J Med Chem, 2020)
In brackets after ≈: the same amount, converted by molar mass. Activity calls are given as the source filed them. The calls are words filed in the database; no cut-off is given here.

System: HeLa
Test: Antiproliferative activity against human HeLa cells assessed as reduction in cell population at 100 uM measured after 3 days by DAPI staining based phase contrast microscopic analysis relative to control
Type: functional
Set-up: scale not given: the % may be the effect or the level left
Conditions: time 3 day

Structure (SMILES)	Activity [%]
CCCn1c(=O)c2ccccc2n2c(SC)nnc12	50

System: HeLa
Test: Induction of mitotic arrest in human HeLa cells assessed as rounded cells with apoptosis at 100 uM measured after 12 hrs by DAPI staining based phase contrast microscopic analysis
Type: functional, cell-based
Conditions: not given

Structure (SMILES)	Activity
CCCn1c(=O)c2cc(F)ccc2n2c(SC)nnc12	Active
CCCn1c(=O)c2ccccc2n2c(SC)nnc12	Active
CCCn1c(=O)c2cccc(F)c2n2c(SC)nnc12	Active

Target: T1, Muscarinic acetylcholine receptor M5 (Homo sapiens, UniProt P08912)
T1 sequence (P08912 whole entry): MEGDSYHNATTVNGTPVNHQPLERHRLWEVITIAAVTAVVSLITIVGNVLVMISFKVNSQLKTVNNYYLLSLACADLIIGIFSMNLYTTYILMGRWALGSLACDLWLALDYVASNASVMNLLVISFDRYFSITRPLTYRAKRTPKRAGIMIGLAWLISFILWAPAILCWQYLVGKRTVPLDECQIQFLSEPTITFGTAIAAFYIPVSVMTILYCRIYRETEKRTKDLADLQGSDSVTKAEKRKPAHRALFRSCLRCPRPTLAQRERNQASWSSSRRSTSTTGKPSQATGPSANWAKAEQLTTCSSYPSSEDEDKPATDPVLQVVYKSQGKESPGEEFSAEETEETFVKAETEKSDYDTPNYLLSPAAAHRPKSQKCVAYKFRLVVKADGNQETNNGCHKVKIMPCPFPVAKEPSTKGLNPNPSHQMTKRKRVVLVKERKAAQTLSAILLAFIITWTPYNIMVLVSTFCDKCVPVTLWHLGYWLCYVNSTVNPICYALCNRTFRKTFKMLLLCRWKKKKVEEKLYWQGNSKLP
Test: Inhibition of M5 (unknown origin) at 10 uM relative to control
Conditions: not given

Structure (SMILES)	inhibition at 10 µM [%]
NCCCn1c(=O)c2cc(F)ccc2n2c(=S)[nH]nc12	84

System: not given
Test: not given
Conditions: PAMPA

Structure (SMILES)	permeability
C[C@H]1C[C@@H]1n1c(=O)c2cc(F)ccc2n2c(=S)[nH]nc12 (relative stereo)	188 10^-6 cm/s

Target: Serine/threonine-protein kinase PLK2 (Homo sapiens, UniProt Q9NYY3)
Sequence (Q9NYY3 whole entry): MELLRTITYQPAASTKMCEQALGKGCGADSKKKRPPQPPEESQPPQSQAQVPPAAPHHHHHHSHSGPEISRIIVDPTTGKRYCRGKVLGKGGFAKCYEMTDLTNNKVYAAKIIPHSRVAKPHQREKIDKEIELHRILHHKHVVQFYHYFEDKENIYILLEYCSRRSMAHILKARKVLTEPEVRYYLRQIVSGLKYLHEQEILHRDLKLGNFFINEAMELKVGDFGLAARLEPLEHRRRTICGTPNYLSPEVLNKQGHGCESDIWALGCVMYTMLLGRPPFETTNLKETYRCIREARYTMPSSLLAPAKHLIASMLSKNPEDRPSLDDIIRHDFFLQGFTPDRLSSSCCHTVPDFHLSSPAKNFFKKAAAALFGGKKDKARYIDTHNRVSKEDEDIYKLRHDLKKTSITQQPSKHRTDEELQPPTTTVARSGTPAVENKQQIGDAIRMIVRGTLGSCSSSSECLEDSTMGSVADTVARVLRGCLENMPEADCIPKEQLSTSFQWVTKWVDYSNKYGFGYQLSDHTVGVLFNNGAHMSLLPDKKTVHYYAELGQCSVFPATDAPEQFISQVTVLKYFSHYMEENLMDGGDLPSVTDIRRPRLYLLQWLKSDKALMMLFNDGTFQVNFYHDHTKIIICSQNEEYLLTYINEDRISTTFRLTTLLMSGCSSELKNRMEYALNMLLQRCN
Test: Inhibition of FITC-Ahx-DPPLHSpTAI-NH2 binding to Plk2 PBD (unknown origin) expressed in bacterial expression system measured after 30 mins by fluorescence polarization assay
Conditions: 0.5 h

Structure (SMILES)	inhibition (INH)
O=c1c2cc(F)ccc2n2c(=S)[nH]nc2n1CC1CC1	Not Active

Target: Muscarinic acetylcholine receptor M3 (Homo sapiens, UniProt P20309)
Sequence (P20309 whole entry): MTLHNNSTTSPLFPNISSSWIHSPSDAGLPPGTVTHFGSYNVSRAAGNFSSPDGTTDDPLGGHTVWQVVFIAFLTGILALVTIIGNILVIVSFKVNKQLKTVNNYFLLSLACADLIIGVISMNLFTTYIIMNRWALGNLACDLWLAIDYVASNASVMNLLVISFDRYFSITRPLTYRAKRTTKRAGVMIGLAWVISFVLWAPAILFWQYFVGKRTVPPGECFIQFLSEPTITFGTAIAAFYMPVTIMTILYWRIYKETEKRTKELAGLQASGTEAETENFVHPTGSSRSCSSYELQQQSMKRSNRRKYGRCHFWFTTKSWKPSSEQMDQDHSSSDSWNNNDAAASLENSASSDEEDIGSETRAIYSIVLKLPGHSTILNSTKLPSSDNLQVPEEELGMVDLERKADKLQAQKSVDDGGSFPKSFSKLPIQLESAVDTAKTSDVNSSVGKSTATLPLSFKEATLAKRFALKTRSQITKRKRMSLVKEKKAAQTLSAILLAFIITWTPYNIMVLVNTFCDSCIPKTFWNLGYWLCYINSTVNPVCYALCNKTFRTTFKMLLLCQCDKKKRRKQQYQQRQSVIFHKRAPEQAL
Test: Inhibition of M3 (unknown origin) at 10 uM relative to control
Conditions: not given

Structure (SMILES)	inhibition at 10 µM [%]
NCCCn1c(=O)c2cc(F)ccc2n2c(=S)[nH]nc12	100

Target: T2, Serine/threonine-protein kinase PLK1 (Homo sapiens, UniProt P53350)
T2 sequence (P53350 whole entry): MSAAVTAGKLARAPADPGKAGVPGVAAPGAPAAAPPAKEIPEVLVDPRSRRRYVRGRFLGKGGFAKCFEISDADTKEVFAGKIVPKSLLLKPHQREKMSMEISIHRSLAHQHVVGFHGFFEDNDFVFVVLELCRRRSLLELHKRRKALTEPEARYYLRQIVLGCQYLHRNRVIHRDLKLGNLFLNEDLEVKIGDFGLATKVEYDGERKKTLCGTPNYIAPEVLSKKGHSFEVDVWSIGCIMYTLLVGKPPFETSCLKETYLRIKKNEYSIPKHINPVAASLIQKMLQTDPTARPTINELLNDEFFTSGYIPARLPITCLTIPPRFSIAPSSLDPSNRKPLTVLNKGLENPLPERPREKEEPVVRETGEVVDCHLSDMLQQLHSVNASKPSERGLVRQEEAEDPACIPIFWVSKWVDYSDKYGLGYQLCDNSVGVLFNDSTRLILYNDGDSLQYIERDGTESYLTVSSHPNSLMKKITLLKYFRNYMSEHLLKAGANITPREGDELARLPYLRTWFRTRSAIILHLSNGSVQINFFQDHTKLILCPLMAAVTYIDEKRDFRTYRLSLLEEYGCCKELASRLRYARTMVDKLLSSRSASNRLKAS
Test: Inhibition of Plk1 PBD in human HeLa cells assessed as reduction in plk1 localization to kinetochores at 100 uM measured after 12 hrs by immunostaining based assay
Type: cell-based
Conditions: not given

Structure (SMILES)	inhibition [%]
CCCn1c(=O)c2ccccc2n2c(SC)nnc12	50

System: not listed separately
Test: in vitro
Conditions: PAMPA
Description: Permeability of the compound by PAMPA

Structure (SMILES)	Papp [×10⁻⁶ cm/s]
O=c1c2cc(F)ccc2n2c(=S)[nH]nc2n1CCN1CCCCC1	358
O=c1c2ccncc2n2c(=S)[nH]nc2n1CCc1ccccc1	202
CC(=O)Nc1ccc2c(c1)c(=O)n(CCc1ccccc1)c1n[nH]c(=S)n21	253
NCCCn1c(=O)c2cc(F)ccc2n2c(=S)[nH]nc12.O=C(O)C(F)(F)F	< 1
O=c1c2cc(Br)ccc2n2c(=S)[nH]nc2n1CCc1ccccc1	162
O=c1c2cc(F)ccc2n2c(=S)[nH]nc2n1CCC(F)(F)F	117
CCn1c(=O)c2ccccc2n2c(=S)[nH]nc12	427
O=c1c2cccc(F)c2n2c(=S)[nH]nc2n1CCc1ccccc1	141
O=c1c2cc(F)ccc2n2c(=S)[nH]nc2n1CC1CC1	46
O=c1c2cc(F)ccc2n2c(=S)[nH]nc2n1CCN1CCOCC1	67
NCCCn1c(=O)c2cc(F)ccc2n2c(=S)[nH]nc12	16.8
NS(=O)(=O)CCCC(=O)NCCCn1c(=O)c2cc(F)ccc2n2c(=S)[nH]nc12	3
O=c1c2cc(F)ccc2n2c(=S)[nH]nc2n1CCC1CCC(F)(F)CC1	201
O=C(CN1CCOCC1)NCCCn1c(=O)c2cc(F)ccc2n2c(=S)[nH]nc12	< 1
O=c1c2cc(F)ccc2n2c(=S)[nH]nc2n1CCN1CCC(F)(F)CC1	234
Nc1nnc2n(CCc3ccccc3)c(=O)c3cc(F)ccc3n12	885

Target: Serine/threonine-protein kinase PLK3 (Homo sapiens) (UniProt Q9H4B4)
Sequence (Q9H4B4 whole entry, looked up): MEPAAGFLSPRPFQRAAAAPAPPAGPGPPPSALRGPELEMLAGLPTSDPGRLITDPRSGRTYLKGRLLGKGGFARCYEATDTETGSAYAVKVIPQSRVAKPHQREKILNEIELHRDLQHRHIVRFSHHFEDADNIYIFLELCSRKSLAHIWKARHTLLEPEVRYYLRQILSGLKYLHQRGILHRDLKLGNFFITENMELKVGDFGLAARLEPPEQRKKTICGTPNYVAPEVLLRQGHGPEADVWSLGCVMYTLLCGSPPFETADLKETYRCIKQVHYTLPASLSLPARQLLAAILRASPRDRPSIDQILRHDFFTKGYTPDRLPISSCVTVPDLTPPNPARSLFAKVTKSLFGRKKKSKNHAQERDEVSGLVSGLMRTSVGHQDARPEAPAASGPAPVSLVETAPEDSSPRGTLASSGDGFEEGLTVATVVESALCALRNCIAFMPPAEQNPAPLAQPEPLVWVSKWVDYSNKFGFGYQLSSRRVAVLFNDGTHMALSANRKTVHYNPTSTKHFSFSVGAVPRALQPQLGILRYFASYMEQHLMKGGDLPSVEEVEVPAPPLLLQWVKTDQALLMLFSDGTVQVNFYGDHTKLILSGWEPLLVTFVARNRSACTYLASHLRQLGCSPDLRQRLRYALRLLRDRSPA
Test: Inhibition of FITC-Ahx-DPPLHSpTAI-NH2 binding to Plk3 PBD (unknown origin) expressed in bacterial expression system measured after 30 mins by fluorescence polarization assay
Conditions: not given

Structure (SMILES)	inhibition
O=c1c2cc(F)ccc2n2c(=S)[nH]nc2n1CC1CC1	inactive

System: HeLa
Test: Induction of mitotic arrest in human HeLa cells assessed as apperance of aberrant chromosomal morphology at 100 uM measured after 12 hrs by DAPI staining based phase contrast microscopic analysis
Type: functional, cell-based
Conditions: not given

Structure (SMILES)	Activity
CCCn1c(=O)c2cc(F)ccc2n2c(SC)nnc12	Active
CCCn1c(=O)c2ccccc2n2c(SC)nnc12	Active
CCCn1c(=O)c2cccc(F)c2n2c(SC)nnc12	Active

System: HeLa
Test: Induction of mitotic arrest in human HeLa cells assessed as abnormal spindle morphology at 100 uM measured after 12 hrs by DAPI staining based immunoassay
Type: functional, cell-based
Conditions: not given

Structure (SMILES)	Activity
CCCn1c(=O)c2ccccc2n2c(SC)nnc12	Active

System: not listed separately
Test: Half life in rat liver microsomes at 1 uM measured up to 60 mins in presence of NADPH generating system
Conditions: 1 h

Structure (SMILES)	t1/2 [min]
O=c1c2cc(F)ccc2n2c(=S)[nH]nc2n1CCN1CCCCC1	> 30
O=c1c2ccncc2n2c(=S)[nH]nc2n1CCc1ccccc1	15.8
CC(=O)Nc1ccc2c(c1)c(=O)n(CCc1ccccc1)c1n[nH]c(=S)n21	> 30
NCCCn1c(=O)c2cc(F)ccc2n2c(=S)[nH]nc12.O=C(O)C(F)(F)F	> 30
O=c1c2cc(Br)ccc2n2c(=S)[nH]nc2n1CCc1ccccc1	> 30
O=c1c2cc(F)ccc2n2c(=S)[nH]nc2n1CCC(F)(F)F	> 30
CCn1c(=O)c2ccccc2n2c(=S)[nH]nc12	> 30
O=c1c2cccc(F)c2n2c(=S)[nH]nc2n1CCc1ccccc1	> 30
O=c1c2cc(F)ccc2n2c(=S)[nH]nc2n1CC1CC1	> 30
O=c1c2cc(F)ccc2n2c(=S)[nH]nc2n1CCN1CCOCC1	> 30
NCCCn1c(=O)c2cc(F)ccc2n2c(=S)[nH]nc12	> 30
NS(=O)(=O)CCCC(=O)NCCCn1c(=O)c2cc(F)ccc2n2c(=S)[nH]nc12	> 30
O=c1c2cc(F)ccc2n2c(=S)[nH]nc2n1CCC1CCC(F)(F)CC1	> 30
O=C(CN1CCOCC1)NCCCn1c(=O)c2cc(F)ccc2n2c(=S)[nH]nc12	> 30
O=c1c2cc(F)ccc2n2c(=S)[nH]nc2n1CCN1CCC(F)(F)CC1	> 30
Nc1nnc2n(CCc3ccccc3)c(=O)c3cc(F)ccc3n12	29.4
C[C@H]1C[C@@H]1n1c(=O)c2cc(F)ccc2n2c(=S)[nH]nc12 (relative stereo)	> 30

System: not listed separately
Test: Half life in human cytosol
Type: ADME, subcellular
Conditions: not given

Structure (SMILES)	t1/2
CCCn1c(=O)c2cc(F)ccc2n2c(SC)nnc12	<= 120 min
CCCn1c(=O)c2ccccc2n2c(SC)nnc12	<= 120 min

System: not listed separately
Test: Drug metabolism in C57BL/6 mouse assessed as hydroxylation in serum at 20 mg/kg, ip measured after 15 mins by UPLC-ESI-QTOFMS analysis
Type: ADME, organism-based
Conditions: in vivo

Structure (SMILES)	Drug metabolism
CCCn1c(=O)c2ccccc2n2c(SC)nnc12	Metabolite_Detected

Target: T2, Serine/threonine-protein kinase PLK1
Test: Inhibition of biotin-Ahx-CETFDPPLHSpTAI-NH2 binding to recombinant human full-length HA-EGFP-tagged Plk1 PBD expressed in HEK293A cells preincubated for 30 mins followed by biotin-Ahx-CETFDPPLHSpTAI-NH2 addition and measured after 1 hr by 3,3',5,5'-tetramethylbenzidine substrate based ELISA
Type: cell-based, HEK293-A
Conditions: not given

Structure (SMILES)	IC50 [µM]
CCCn1c(=O)c2ccccc2n2c(SC)nnc12	> 50

Target: T3, Muscarinic acetylcholine receptor M4 (Homo sapiens, UniProt P08173)
T3 sequence (P08173 whole entry): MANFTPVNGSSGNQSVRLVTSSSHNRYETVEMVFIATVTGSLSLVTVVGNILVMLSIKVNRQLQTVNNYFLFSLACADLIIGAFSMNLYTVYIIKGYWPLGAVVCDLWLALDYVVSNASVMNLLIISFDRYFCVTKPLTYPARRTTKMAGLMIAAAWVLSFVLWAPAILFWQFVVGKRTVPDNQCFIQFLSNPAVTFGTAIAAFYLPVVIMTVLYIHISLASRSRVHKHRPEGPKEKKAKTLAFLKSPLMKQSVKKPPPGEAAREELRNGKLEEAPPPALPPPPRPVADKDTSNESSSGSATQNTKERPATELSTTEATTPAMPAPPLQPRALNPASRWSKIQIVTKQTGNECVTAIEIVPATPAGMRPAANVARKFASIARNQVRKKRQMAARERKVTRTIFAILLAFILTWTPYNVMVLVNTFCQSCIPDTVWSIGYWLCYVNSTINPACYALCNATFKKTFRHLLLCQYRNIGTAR
Test: Inhibition of M4 (unknown origin) at 10 uM relative to control
Conditions: not given

Structure (SMILES)	inhibition at 10 µM [%]
NCCCn1c(=O)c2cc(F)ccc2n2c(=S)[nH]nc12	73

System: not listed separately
Test: Half life in rat cytosol
Type: ADME, subcellular
Conditions: not given

Structure (SMILES)	t1/2
CCCn1c(=O)c2cc(F)ccc2n2c(SC)nnc12	<= 120 min
CCCn1c(=O)c2ccccc2n2c(SC)nnc12	<= 120 min

System: not listed separately
Test: Aqueous solubility of compound
Type: physicochemical
Conditions: buffer

Structure (SMILES)	solubility [µg/mL]
O=c1c2cc(F)ccc2n2c(=S)[nH]nc2n1CCN1CCCCC1	2.4 (≈ 6.91 µM)
O=c1c2ccncc2n2c(=S)[nH]nc2n1CCc1ccccc1	17.3 (≈ 53.5 µM)
CC(=O)Nc1ccc2c(c1)c(=O)n(CCc1ccccc1)c1n[nH]c(=S)n21	2.2 (≈ 5.8 µM)
NCCCn1c(=O)c2cc(F)ccc2n2c(=S)[nH]nc12.O=C(O)C(F)(F)F	> 43
O=c1c2cc(Br)ccc2n2c(=S)[nH]nc2n1CCc1ccccc1	< 1
O=c1c2cc(F)ccc2n2c(=S)[nH]nc2n1CCC(F)(F)F	17.3 (≈ 52.1 µM)
CCn1c(=O)c2ccccc2n2c(=S)[nH]nc12	> 36
O=c1c2cccc(F)c2n2c(=S)[nH]nc2n1CCc1ccccc1	3.4 (≈ 9.99 µM)
O=c1c2cc(F)ccc2n2c(=S)[nH]nc2n1CC1CC1	16.2 (≈ 55.8 µM)
O=c1c2cc(F)ccc2n2c(=S)[nH]nc2n1CCN1CCOCC1	> 52
NCCCn1c(=O)c2cc(F)ccc2n2c(=S)[nH]nc12	27 (≈ 92 µM)
NS(=O)(=O)CCCC(=O)NCCCn1c(=O)c2cc(F)ccc2n2c(=S)[nH]nc12	42.4 (≈ 95.8 µM)
O=c1c2cc(F)ccc2n2c(=S)[nH]nc2n1CCC1CCC(F)(F)CC1	< 1
O=C(CN1CCOCC1)NCCCn1c(=O)c2cc(F)ccc2n2c(=S)[nH]nc12	> 62
O=c1c2cc(F)ccc2n2c(=S)[nH]nc2n1CCN1CCC(F)(F)CC1	20.2 (≈ 52.7 µM)
Nc1nnc2n(CCc3ccccc3)c(=O)c3cc(F)ccc3n12	2.2 (≈ 6.8 µM)
C[C@H]1C[C@@H]1n1c(=O)c2cc(F)ccc2n2c(=S)[nH]nc12 (relative stereo)	13.2 (≈ 45.5 µM)

System: not listed separately
Test: Toxicity in C57BL/6 mouse at 20 mg/kg, ip
Type: organism-based
Conditions: in vivo

Structure (SMILES)	Activity
CCCn1c(=O)c2ccccc2n2c(SC)nnc12	Non-Toxic

System: not listed separately
Test: Half life in mouse cytosol
Type: ADME, subcellular
Conditions: not given

Structure (SMILES)	t1/2
CCCn1c(=O)c2cc(F)ccc2n2c(SC)nnc12	<= 120 min
CCCn1c(=O)c2ccccc2n2c(SC)nnc12	<= 120 min

System: not listed separately
Test: Drug metabolism in C57BL/6 mouse assessed as demethylation in serum at 20 mg/kg, ip measured after 15 to 240 mins by UPLC-ESI-QTOFMS analysis
Type: ADME, organism-based
Conditions: in vivo, time 15-240 min

Structure (SMILES)	Drug metabolism
CCCn1c(=O)c2ccccc2n2c(SC)nnc12	Metabolite_Detected

Target: T2, Serine/threonine-protein kinase PLK1
Test: Inhibition of Plk1 PBD in human HeLa cells assessed as reduction in plk1 localization to centrosomes at 100 uM measured after 12 hrs by immunostaining based assay
Type: cell-based
Conditions: not given

Structure (SMILES)	inhibition [%]
CCCn1c(=O)c2ccccc2n2c(SC)nnc12	20
